Measurements published in patent publication US6737383B1, “Herbicidal oxadiazolidines” (priority 1999, dated 2004).

Assays:
bamyardgrass = test: Test B flood test barnyardgrass; assay type: in vivo, Echinochloa crus-galli
Outline: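 Read-out is a visual response score from 0 (no effect) to 10 (complete control), assigned by comparison with untreated controls. Treatment was applied at the 2-leaf stage, and plants stayed in the greenhouse for twelve to sixteen days before scoring.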

bedstraw = test: Test B pre/postemergence bedstraw; assay type: in vivo, Galium aparine
Outline: (§1)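 Herbicidal effect was estimated by eye on a ten-point control scale after plants spent twelve to sixteen days in a greenhouse following soil or foliar treatment. Foliar sprays targeted plants at one to four leaves; all doses were formulated in a non-phytotoxic solvent with surfactant.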

blackgrass = test: Test B pre/postemergence blackgrass; assay type: in vivo, Alopecurus myosuroides
Outline: as §1

surinam grass = test: Test B pre/postemergence surinam grass; assay type: in vivo, Brachiaria decumbens
Outline: as §1

[1] = Postemergence, Rate 62 g/ha, scale 0 to 10, 0 is no effect, 10 is complete control
[2] = Postemergence, Rate 250 g/ha, scale 0 to 10, 0 no effect, 10 complete control
[3] = Preemergence, Rate 62 g/ha, scale 0 to 10 (0 no effect, 10 complete control)
[4] = Preemergence, Rate 125 g/ha, scale 0 to 10 (0 no effect, 10 complete control)
[5] = Preemergence, Rate 250 g/ha, scale of 0 to 10 where 0 is no effect and 10 is complete control
[6] = Preemergence, Rate 500 g/ha, scale 0 (no effect) to 10 (complete control)
[7] = Rate 125 g/ha, Postemergence, scale 0 to 10, 0 no effect, 10 complete control
[8] = Rate 500 g/ha, Postemergence, scale 0 to 10, 0 no effect, 10 complete control
[9] = Rate 500 g/ha, Postemergence, scale of 0 to 10 where 0 is no effect and 10 is complete control
[10] = Rate 62 g/ha, headed Pre-emergence (flood test species), scale 0 to 10 (0 no effect, 10 complete control)
[11] = Rate 125 g/ha, Pre-emergence, flood test species, scale 0 to 10 where 0 is no effect and 10 is complete control
[12] = Rate 500 g/ha, headed Pre-emergence (flood test species), scale 0 to 10 (0 no effect, 10 complete control)
[13] = Preemergence, Rate 62 g/ha, scale of 0 to 10 where 0 is no effect and 10 is complete control
[14] = Preemergence, Rate 125 g/ha, 0 is no effect, 10 is complete control
[15] = Preemergence, Rate 250 g/ha, scale 0 to 10, 0 is no effect, 10 is complete control
[16] = Preemergence, Rate 500 g/ha, scale of 0 to 10 where 0 is no effect and 10 is complete control
[17] = Rate 62 g/ha, Postemergence, scale of 0 to 10 where 0 is no effect and 10 is complete control
[18] = Rate 125 g/ha, Postemergence, scale 0 to 10
[19] = Rate 500 g/ha, Postemergence, scale 0 to 10
[20] = Preemergence, Rate 125 g/ha, scale of 0 to 10 where 0 is no effect and 10 is complete control
[21] = Preemergence, Rate 250 g/ha, scale 0 to 10 (0 no effect, 10 complete control)
[22] = Postemergence, Rate 125 g/ha, scale of 0 to 10 where 0 is no effect and 10 is complete control
[23] = Postemergence, Rate 250 g/ha, scale of 0 to 10, 0 is no effect, 10 is complete control
[24] = Postemergence, Rate 500 g/ha, scale of 0 to 10 where 0 is no effect and 10 is complete control

Cc1cccc(C(C)C)c1-n1c(=O)on(C(=O)N(c2ccccc2)C(C)C)c1=O [Compound 66]
3: Barnyardgrass plant response rating (bamyardgrass; Rate 500 g/ha, listed under Postemergence (flood test species), scale 0 to 10, 0 no effect, 10 complete control) | Blackgrass plant response rating (blackgrass; [8])
2: Bedstraw plant response rating (bedstraw; [8]) | Blackgrass plant response rating (blackgrass; [2])
0: Barnyardgrass plant response rating (bamyardgrass; [1]) | Barnyardgrass plant response rating (bamyardgrass; Rate 125 g/ha, Postemergence section (flood test species), scale 0 to 10, 0 no effect, 10 complete control) | Barnyardgrass plant response rating (bamyardgrass; flood test, listed under Postemergence, Rate 250 g/ha, scale 0 to 10, 0 no effect, 10 complete control) | Bedstraw plant response rating (bedstraw; [1]) | Bedstraw plant response rating (bedstraw; [2]) | Bedstraw plant response rating (bedstraw; [3]) | Plant response rating, Bedstraw (bedstraw; [4]) | Plant response rating, Bedstraw (bedstraw; [5]) | Bedstraw plant response rating (bedstraw; [6]) | Bedstraw plant response rating (bedstraw; [7]) | Blackgrass plant response rating (blackgrass; [1]) | Blackgrass plant response rating (blackgrass; [3]) | Plant response rating, Blackgrass (blackgrass; [4]) | Plant response rating, Blackgrass (blackgrass; [5]) | Blackgrass plant response rating (blackgrass; [6]) | Blackgrass plant response rating (blackgrass; [7]) | B. signalgrass plant response rating (surinam grass; [1]) | B. signalgrass plant response rating (surinam grass; [2]) | B. signalgrass plant response rating (surinam grass; [3]) | Plant response rating, B. signalgrass (surinam grass; [4]) | Plant response rating, B. signalgrass (surinam grass; [5]) | B. signalgrass plant response rating (surinam grass; [6]) | B. signalgrass plant response rating (surinam grass; [7]) | B. signalgrass plant response rating (surinam grass; [9])

Cc1ccccc1-n1c(=O)on(C(=O)N(Cc2ccccc2)C(C)C)c1=O [Compound 72]
0: Barnyardgrass plant response rating (bamyardgrass; [10]) | Barnyardgrass plant response rating (bamyardgrass; [11]) | Barnyardgrass plant response rating (bamyardgrass; Rate 250 g/ha, headed Pre-emergence (flood test species), scale 0 to 10 (0 no effect, 10 complete control)) | Plant response rating, Barnyardgrass (bamyardgrass; [12]) | Bedstraw plant response rating (bedstraw; [1]) | Bedstraw plant response rating (bedstraw; [2]) | Bedstraw plant response rating (bedstraw; [3]) | Plant response rating, Bedstraw (bedstraw; [4]) | Plant response rating, Bedstraw (bedstraw; [5]) | Bedstraw plant response rating (bedstraw; [6]) | Bedstraw plant response rating (bedstraw; [7]) | Bedstraw plant response rating (bedstraw; [8]) | Blackgrass plant response rating (blackgrass; [1]) | Blackgrass plant response rating (blackgrass; [2]) | Blackgrass plant response rating (blackgrass; [3]) | Plant response rating, Blackgrass (blackgrass; [4]) | Plant response rating, Blackgrass (blackgrass; [5]) | Blackgrass plant response rating (blackgrass; [6]) | Blackgrass plant response rating (blackgrass; [7]) | Blackgrass plant response rating (blackgrass; [8]) | B. signalgrass plant response rating (surinam grass; [1]) | B. signalgrass plant response rating (surinam grass; [2]) | B. signalgrass plant response rating (surinam grass; [3]) | Plant response rating, B. signalgrass (surinam grass; [4]) | Plant response rating, B. signalgrass (surinam grass; [5]) | B. signalgrass plant response rating (surinam grass; [6]) | B. signalgrass plant response rating (surinam grass; [7]) | B. signalgrass plant response rating (surinam grass; [9])

Cc1nc(C)c(-n2c(=O)on(C(=O)N(c3ccc(Cl)cc3)C(C)C)c2=O)s1 [Compound 196]
0: Barnyardgrass plant response rating (bamyardgrass; Rate 31 g/ha, Pre-emergence section (flood test species), scale 0 to 10) | Barnyardgrass plant response rating (bamyardgrass; [10]) | Barnyardgrass plant response rating (bamyardgrass; [11]) | Barnyardgrass plant response rating (bamyardgrass; Rate 250 g/ha, Pre-emergence, flood-test species, scale 0 to 10, 0 is no effect, 10 is complete control) | Plant response rating, Barnyardgrass (bamyardgrass; [12]) | Bedstraw plant response rating (bedstraw; [13]) | Bedstraw plant response rating (0 to 10 scale) (bedstraw; [14]) | Bedstraw plant response rating (bedstraw; [15]) | Plant response rating, Bedstraw (bedstraw; [16]) | Bedstraw plant response rating (bedstraw; [17]) | Bedstraw plant response rating (bedstraw; [18]) | Plant response rating (0 to 10; 0 is no effect, 10 is complete control), Bedstraw (bedstraw; Rate 250 g/ha, Postemergence) | Bedstraw plant response rating (bedstraw; [19]) | Blackgrass plant response rating (blackgrass; [13]) | Blackgrass plant response rating (0 to 10 scale) (blackgrass; [14]) | Blackgrass plant response rating (blackgrass; [15]) | Plant response rating, Blackgrass (blackgrass; [16]) | Blackgrass plant response rating (blackgrass; [17]) | Blackgrass plant response rating (blackgrass; [18]) | Plant response rating (0 to 10; 0 is no effect, 10 is complete control), Blackgrass (blackgrass; Rate 250 g/ha, Postemergence) | Blackgrass plant response rating (blackgrass; [19]) | B. signalgrass plant response rating (surinam grass; [13]) | B. signalgrass plant response rating (0 to 10 scale) (surinam grass; [14]) | B. signalgrass plant response rating (surinam grass; [15]) | Plant response rating, B. signalgrass (surinam grass; [16]) | B. signalgrass plant response rating (surinam grass; [17]) | B. signalgrass plant response rating (surinam grass; Rate 125 g/ha, Postemergence, scale 0 (no effect) to 10 (complete control)) | Plant response rating, B. signalgrass (surinam grass; Rate 250 g/ha, Postemergence, scale 0 to 10, 0 is no effect, 10 is complete control) | B. signalgrass plant response rating (surinam grass; [8])

CCOC(Cn1c(=O)on(C(=O)N(c2ccc(F)cc2F)C(C)C)c1=O)OCC [Compound 630]
10: Plant response rating, Blackgrass (blackgrass; [16])
5: Blackgrass plant response rating (blackgrass; [3])
8: Blackgrass plant response rating (blackgrass; [20]) | Plant response rating, Blackgrass (blackgrass; [21]) | Plant response rating, B. signalgrass (surinam grass; [16])
0: Plant response rating, Barnyardgrass (0 to 10 scale, 0 is no effect, 10 is complete control) (bamyardgrass; Rate 62 g/ha, flood test species, Pre-emergence, visual evaluation after twelve to sixteen days) | Barnyardgrass plant response rating (0 to 10 scale, 0 is no effect, 10 is complete control) (bamyardgrass; Rate 125 g/ha, under heading Pre-emergence, flood test species, visual evaluation after twelve to sixteen days) | Barnyardgrass plant response rating (bamyardgrass; Rate 250 g/ha, Pre-emergence (flood test species), scale 0 to 10, 0 is no effect, 10 is complete control) | Barnyardgrass plant response rating (bamyardgrass; Rate 500 g/ha, Pre-emergence section of Table B, 0 to 10 scale (0 no effect, 10 complete control)) | Plant response rating, Bedstraw (bedstraw; [1]) | Bedstraw plant response rating (bedstraw; [3]) | Bedstraw plant response rating (bedstraw; [20]) | Plant response rating, Bedstraw (bedstraw; [21]) | Plant response rating, Blackgrass (blackgrass; [1]) | Plant response rating, Blackgrass (blackgrass; [22]) | Plant response rating, B. signalgrass (surinam grass; [1]) | Plant response rating, B. signalgrass (surinam grass; [22]) | B. signalgrass plant response rating (surinam grass; [3])
1: B. signalgrass plant response rating (surinam grass; [23])
3: Blackgrass plant response rating (blackgrass; [23]) | Plant response rating, B. signalgrass (surinam grass; [24]) | B. signalgrass plant response rating (surinam grass; [20])
9: Plant response rating, Blackgrass (blackgrass; [24])
7: Plant response rating, Bedstraw (bedstraw; [16]) | Plant response rating, B. signalgrass (surinam grass; [21])
